This note sets out measurements from patent US20090325959A1 (priority 2008, published 2009).

Broadly, the Ki is a measure of affinity in units of concentration, obtained from inhibition or displacement.

In series [1] the target is T1, ROCK1 (Homo sapiens, UniProt Q13464).
T1 construct: purchased Upstate/Chemicon 14-601
Nature of the series: Rho kinase inhibition assay (IMAP fluorescence polarization), ROCK1.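 Also: kinase reaction run 60 min at room temperature, then phosphorylated substrate captured on IMAP beads for 30 min, with fluorescence polarization read in mP.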 The class given is biochemical.
Description: (§1) Following the pre-incubation, 10 μM ATP was added to initiate the reaction. After 60 minutes at room temperature, Molecular Devices IMAP™ binding solution was added to bind phosphorylated substrate. After 30 minutes of incubation in the presence of the IMAP™ beads, the fluorescence polarization was read and the ratio was reported as mP. IC50 values for compounds and EC50 values for ATP were calculated using the Prism software from Graphpad.

The target of series [2] is T2, ROCK2 (Homo sapiens, UniProt O75116).
T2 construct: purchased Upstate/Chemicon 14-451
T2 sequence (O75116 11-552 limits assumed): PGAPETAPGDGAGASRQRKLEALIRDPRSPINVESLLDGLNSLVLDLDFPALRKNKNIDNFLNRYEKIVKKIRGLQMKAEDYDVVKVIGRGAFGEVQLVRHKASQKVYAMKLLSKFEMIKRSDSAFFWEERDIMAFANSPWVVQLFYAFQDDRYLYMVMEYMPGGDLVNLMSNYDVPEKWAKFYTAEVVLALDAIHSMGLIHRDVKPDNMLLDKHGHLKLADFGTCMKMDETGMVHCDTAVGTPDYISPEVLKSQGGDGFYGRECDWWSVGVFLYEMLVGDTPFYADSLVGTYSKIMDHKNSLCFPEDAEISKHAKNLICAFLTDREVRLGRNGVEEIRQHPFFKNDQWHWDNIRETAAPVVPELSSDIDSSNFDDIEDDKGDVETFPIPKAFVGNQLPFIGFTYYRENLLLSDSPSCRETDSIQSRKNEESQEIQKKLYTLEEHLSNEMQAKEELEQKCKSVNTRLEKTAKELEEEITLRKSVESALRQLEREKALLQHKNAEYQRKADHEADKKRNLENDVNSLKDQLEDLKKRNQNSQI
Description: Rho kinase inhibition assay (IMAP fluorescence polarization), ROCK2.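 Also: kinase reaction started with 10 µM ATP and run 60 min at room temperature, then phosphorylated substrate captured on IMAP beads for 30 min and fluorescence polarization read in mP.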 It counts as biochemical. For orientation: Polarisation of emitted light reports the rotation of a fluorescent probe.
Description: as §1

In series [3] the test system is A-10 rat thoracic aorta cells. Nature of the series: PDGF-stimulated smooth muscle cell proliferation assay (BrdU incorporation).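 As to all read-outs here: cells kept in serum-free medium, BrdU allowed to incorporate for 24 h, then incorporated label detected fluorometrically with an anti-BrdU antibody.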 It counts as cell-based. Particulars: A-10 cells, 10 ng/mL PDGF, BrdU incorporation, percent of total challenge-stimulated proliferation; for Percent of PDGF Induced Proliferation at 1 μM Avg: 1 μM test compound; for Percent of PDGF Induced Proliferation at 10 μM Avg: 10 μM test compound. (Uptake of a labelled nucleoside into DNA is a usual measure of proliferation.)
Description: Effects on cell proliferation were measured using a bromodeoxyuridine (BrdU) incorporation assay. […] Serum free media containing 01% BSA was added to the cells. 24 hours later the media was removed and replaced with warmed serum free media. […] Proliferation was then monitored using the BrdU Cell Proliferation Assay, HTS (Calbiochem cat. #t HTS01). BrdU was allowed to incorporate into cells for 24 hours prior to the addition of fixative/denaturing solution and the fluorometric detection of incorporated BrdU using a BrdU antibody as per manufacturer's directions. Data are reported as a percent of the PDGF-stimulated BrdU incorporation.

Series [4] addresses T3, Akt3 human enzyme (Homo sapiens, UniProt Q9Y243).
T3 construct: purchased Upstate Chemicon 14-502
Description: Akt3 inhibition assay (IMAP FP).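 Also: kinase reaction run 60 min at room temperature after 30 µM ATP start, phosphorylated substrate captured on IMAP beads and read as fluorescence polarization (mP).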 It counts as biochemical.

Series [5] deals with T4, p70S6K human enzyme (Homo sapiens, UniProt P23443, T412E).
T4 construct: purchased Upstate Chemicon 14-486
T4 sequence (P23443 1-421 T412E limits assumed): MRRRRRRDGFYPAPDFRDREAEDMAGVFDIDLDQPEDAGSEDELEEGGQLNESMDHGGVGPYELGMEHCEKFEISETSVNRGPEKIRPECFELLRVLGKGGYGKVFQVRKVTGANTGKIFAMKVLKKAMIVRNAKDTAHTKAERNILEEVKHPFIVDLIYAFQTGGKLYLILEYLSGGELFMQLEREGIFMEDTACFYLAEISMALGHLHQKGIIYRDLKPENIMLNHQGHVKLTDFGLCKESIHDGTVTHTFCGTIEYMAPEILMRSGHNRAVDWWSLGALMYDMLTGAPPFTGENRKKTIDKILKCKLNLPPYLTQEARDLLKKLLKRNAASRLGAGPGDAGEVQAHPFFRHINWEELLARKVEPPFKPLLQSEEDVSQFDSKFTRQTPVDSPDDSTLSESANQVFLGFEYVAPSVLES
Nature of the series: p70S6K inhibition assay (IMAP FP).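 Also: kinase reaction run at room temperature, phosphorylated substrate captured on IMAP beads and read as fluorescence polarization in mP, IC50 then converted to Ki.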 The class given is biochemical.

Series [6] in a line: Compound plasma concentrations in unsensitized mice at 15 min post administration. It counts as in vivo. Particulars: mouse, 15 μmol/kg; mean compound plasma concentration in mice at 15 minutes post oral administration; read-out: Mouse Oral PK.
Where [7] appears, read: 10 μM ATP, read-out: ROCK2 Ki, Avg.
Where [8] appears, read: 30 μM ATP, Ki=IC50/(1+([ATP Challenge]/EC50 ATP)), read-out: Akt3 Ki, Avg.
[9] abbreviates: 30 μM ATP, Ki=IC50/(1+([ATP Challenge]/EC50 ATP)), read-out: p70S6K Ki, Avg.
The mark [10] stands for this setting: average Ki, read-out: p70S6K Ki.

Structures are written as SMILES. Read-outs that look alike come from different tables or passages of the source.

T1 sequence (Q13464 17-535 limits assumed): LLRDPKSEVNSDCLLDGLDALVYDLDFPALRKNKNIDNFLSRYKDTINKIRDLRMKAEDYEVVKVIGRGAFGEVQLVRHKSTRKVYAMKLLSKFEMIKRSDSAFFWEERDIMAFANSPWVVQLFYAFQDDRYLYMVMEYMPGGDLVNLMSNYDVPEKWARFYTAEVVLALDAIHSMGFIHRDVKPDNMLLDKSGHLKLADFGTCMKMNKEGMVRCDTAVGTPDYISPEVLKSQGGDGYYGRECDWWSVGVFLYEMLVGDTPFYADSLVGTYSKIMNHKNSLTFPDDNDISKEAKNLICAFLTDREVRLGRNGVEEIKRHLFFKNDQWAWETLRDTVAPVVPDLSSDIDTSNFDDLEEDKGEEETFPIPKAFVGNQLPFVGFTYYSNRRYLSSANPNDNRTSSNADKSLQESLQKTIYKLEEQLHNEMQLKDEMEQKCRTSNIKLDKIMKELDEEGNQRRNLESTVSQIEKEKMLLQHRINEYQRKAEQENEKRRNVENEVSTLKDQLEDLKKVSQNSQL
T3 sequence (Q9Y243 whole entry): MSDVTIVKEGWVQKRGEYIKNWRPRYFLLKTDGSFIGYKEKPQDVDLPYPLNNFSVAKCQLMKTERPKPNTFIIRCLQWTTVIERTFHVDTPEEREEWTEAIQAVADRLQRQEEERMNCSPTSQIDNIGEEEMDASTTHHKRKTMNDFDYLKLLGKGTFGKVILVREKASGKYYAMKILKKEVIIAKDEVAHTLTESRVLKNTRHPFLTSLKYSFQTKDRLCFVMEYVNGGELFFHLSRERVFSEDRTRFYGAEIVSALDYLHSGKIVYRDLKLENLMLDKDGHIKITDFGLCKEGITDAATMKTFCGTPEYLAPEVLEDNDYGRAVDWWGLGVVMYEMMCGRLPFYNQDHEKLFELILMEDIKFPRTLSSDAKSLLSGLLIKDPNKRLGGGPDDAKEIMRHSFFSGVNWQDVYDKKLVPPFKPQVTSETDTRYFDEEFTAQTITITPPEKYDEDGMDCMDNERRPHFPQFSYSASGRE

Regarding `CC(C)c1ccc(CN2CCC[C@H](Nc3ccc4[nH]ncc4c3)C2)cc1` [Compound 1.180, (S)-N-(1-(4-isopropylbenzyl)piperidin-3-yl)-1H-indazol-5-amine], the Ki in series [1] (Avg, 10 μM ATP) is 138 nM; in series [2] (setting [7]), 23.1 nM; in series [4] (setting [8]) it was 12000 nM; in series [5] (setting [9]), 1030 nM. Also, the “Percent of PDGF Induced Proliferation at 1 μM Avg” value (shortened to “Percent … at 1 μM Avg”) in series [3] was 92.4%. Besides, in series [3], the “Percent of PDGF Induced Proliferation at 10 μM Avg” value (“Percent … at 10 μM Avg” below) is recorded as 64.8%.

`FC(F)(F)c1ccc(CN2CCC[C@H](Nc3ccc4[nH]ncc4c3)C2)cc1` [Compound 1.167, (S)-N-(1-(4-(trifluoromethyl)benzyl)piperidin-3-yl)-1H-indazol-5-amine]: the Ki in series [1] (Avg, 10 μM ATP) came to 119 nM; in series [2] (setting [7]), 18.5 nM; in series [4] (setting [8]), 8250 nM; in series [5] (setting [9]), 1070 nM. In addition, the “Percent … at 1 μM Avg” value in series [3] is listed as 78.8%. Moreover, the “Percent … at 10 μM Avg” value in series [3] was 52.7%.

For the compound `CSc1ccc(CN2CCCC(Nc3cccc4cnccc34)C2)cc1` (stereo not shown) [Compound 2.009, N-(1-(4-(methylthio)benzyl)piperidin-3-yl)isoquinolin-5-amine], in series [3], the “Percent … at 1 μM Avg” value stood at 128.9% and the “Percent … at 10 μM Avg” value worked out at 56.5%. Also, the inhibition constant (Ki) in series [4] (setting [8]) was 3730 nM. The Ki in series [5] (setting [9]) came to 1280 nM.

With `CC(C)c1ccc(CN2CCC[C@@H](Nc3ccc4[nH]ncc4c3)C2)cc1` [Compound 1.204, (R)-N-(1-(4-isopropylbenzyl)piperidin-3-yl)-1H-indazol-5-amine], the Ki in series [1] (Avg, 10 μM ATP) stood at 196 nM; in series [2] (setting [7]), 31.9 nM; in series [4] (setting [8]) it was 1910 nM; in series [5] (setting [9]), 927 nM. Besides, the “Percent … at 1 μM Avg” value in series [3] is listed as 79.3%. Moreover, the “Percent … at 10 μM Avg” value in series [3] is 42.8%.

For the compound `c1cc(N[C@@H]2CCN(Cc3ccc(C4CC4)cc3)C2)c2ccncc2c1` [Compound 2.022, (R)-N-(1-(4-cyclopropylbenzyl)pyrrolidin-3-yl)isoquinolin-5-amine], the Ki in series [1] (Avg, 10 μM ATP) was found to be 44.8 nM; in series [2] (setting [7]), 15.3 nM; in series [4] (setting [8]), 4120 nM; in series [5] (setting [9]), 501 nM. For the same compound, the “Percent … at 1 μM Avg” value in series [3] is 89.7%. Also, the “Percent … at 10 μM Avg” value in series [3] was determined as 39.4%.

As to `CS(=O)(=O)Nc1cc(CN2CCC[C@@H](Nc3ccc4[nH]ncc4c3)C2)ccc1Cl` [Compound 1.212, (R)-N-(5-((3-(1H-indazol-5-ylamino)piperidin-1-yl)methyl)-2-chlorophenyl)methanesulfonamide], the Ki came to 44.2 nM in series [1] (Avg, 10 μM ATP); 44.2 nM in series [1] (average Ki); 3.9 nM in series [2] (setting [7]); 3.9 nM in series [2] (average Ki, read-out: ROCK2 Ki); 390 nM in series [4] (setting [8]); 390 nM in series [4] (average Ki, read-out: Akt3 Ki). The Ki in series [5] (setting [9]) and in series [5] (setting [10]) was 894 nM each time. For the same compound, the concentration at 15 min in series [6] was found to be 863 nM.

On to `Clc1ccc(CN2CC[C@@H](Nc3cccc4cnccc34)C2)cc1` [Compound 2.027, (R)-N-(1-(4-chlorobenzyl)pyrrolidin-3-yl)isoquinolin-5-amine], for which the Ki in series [1] (Avg, 10 μM ATP) was determined as 15.7 nM; in series [2] (setting [7]) it was 7.4 nM; in series [4] (setting [8]), 658 nM; in series [5] (setting [9]), 509 nM. Further, in series [3], the “Percent … at 1 μM Avg” value is 79.4%. For the same compound, the “Percent … at 10 μM Avg” value in series [3] was determined as 64.4%.

As to `CS(=O)(=O)Cc1cccc(CN2CCC[C@H](Nc3ccc4[nH]ncc4c3)C2)c1` [Compound 1.157, (S)-N-(1-(3-(methylsulfonylmethyl)benzyl)piperidin-3-yl)-1H-indazol-5-amine], the Ki in series [1] (Avg, 10 μM ATP) worked out at 264 nM; in series [1] (average Ki) it was 264 nM; in series [2] (setting [7]) it was 8.8 nM; in series [2] (average Ki, read-out: ROCK2 Ki), 8.8 nM; in series [4] (setting [8]), 29200 nM; in series [4] (average Ki, read-out: Akt3 Ki), 29200 nM. In addition, the Ki in series [5] (setting [9]) and in series [5] (setting [10]) was 8690 nM throughout. In series [6], the concentration at 15 min was found to be 357 nM.
